According to US20040242650A1, “Extended dosing regimen” (priority 2003, published 2004):
Marks after values point to notes of the source that are not given here.

Assays:
[1] = test system: HT-29 colon subcutaneous flank xenografts; assay: HT-29 flank xenograft model; assay type: in vivo, nude mice; conditions: q.d x5; for Tumor Volume Day 38: mean ± SEM; for % ILS: median, time to 1 cc vs vehicle; for % T/C Day 38: treated vs vehicle
Protocol: (§1) Efficacy of N-[2-[(4-hydroxyphenyl)amino]-3-pyridyl]-4-methoxybenzenesulfonamide was tested in Calu-6 NSCL, MDA-MB-468 breast and HT-29 colon carcinoma xenografts grown in nude mice. The objectives were determination of the efficacy of N-[2-[(4-hydroxyphenyl)amino]-3-pyridyl]-4-methoxybenzenesulfonamide as a single agent and in combination with cisplatin in the Calu-6 NSCL flank xenograft model; determination the efficacy of N-[2-[(4-hydroxyphenyl)amino]-3-pyridyl]-4-methoxybenzenesulfonamide as a single agent and in combination with docetaxel in the MDA-MB 468 breast flank xenograft model; determination of the efficacy of N-[2-[(4-hydroxyphenyl)amino]-3-pyridyl]-4-methoxybenzenesulfonamide as a single agent and in combination with 5-FU in the HT-29 colon flank xenograft model; and comparison the efficacy of N-[2-[(4-hydroxyphenyl)amino]-3-pyridyl]-4-methoxybenzenesulfonamide administered on 2 different schedules (q.d. vs b.i.d.) in the Calu-6 and HT-29 xenogaft model.
(§2) Following inoculation of tumor cells, tumors were passaged three times in mice before using the fragments to generate single cell suspensions. Multiple animals were used as donors. Single cell suspensions were generated by homogenizing the minced tumor tissue in RPMI 1640 media. Cell suspensions were washed three times to remove debris and other foreign materials. Viable cells were counted by trypan blue exclusion technique using a hemocytometer. Mice were injected subcutaneously with 0.5 ml of the cell suspension containing 1×10^6 cells.
(§3) Tumor cells derived from serially passaged tumor fragments were inoculated s.c. in female nude mice on day 0. On day 10, mice bearing established tumors were size matched at ˜236 mm^3 and placed into the following groups:
1. N-[2-[(4-hydroxyphenyl)amino]-3-pyridyl]-4-methoxybenzenesulfonamide—100, and 75 mg/kg/day (p.o., q.d., 5 days on, 5 days off ×2)
2. N-[2-[(4-hydroxyphenyl)amino]-3-pyridyl]-4-methoxybenzenesulfonamide—50 and 0 mg/kg/day (p.o., q.d. ×21 or p.o., b.i.d. ×21)
Combination Therapy—100/30, 75/30, mg/kg/day (p.o., q.d., 5 days on, 5 days off ×2/ip, qd ×1), 50/10 mg/kg/day (p.o., q.d., ×21/ip, qd ×1).

[2] = test system: MDA-MB-468 breast subcutaneous flank xenografts; assay: MDA-MB-468 breast flank xenograft model; assay type: in vivo, female nude mice; conditions: q.d x1; for Tumor Volume Day 38: mean ± SEM; for % ILS: median, time to 1 cc vs vehicle; for % T/C Day 38: treated vs vehicle
Protocol: as §1, §2
as §3, with “Efficacy of N-[2-[(4-hydroxyphenyl)amino]-3-pyridyl]-4-methoxybenzenesulfonamide in the MDA-MB-468 Breast Flank Xenograft Model. Tumor” for “Tumor”, “˜231” for “˜236”
(§4) N-[2-[(4-hydroxyphenyl)amino]-3-pyridyl]-4-methoxybenzenesulfonamide—100, and 75 mg/kg/day (p.o., q.d., 5 days on, 5 days off ×2)
N-[2-[(4-hydroxyphenyl)amino]-3-pyridyl]-4-methoxybenzenesulfonamide—50 and 0 mg/kg/day (p.o., q.d. ×21)
Docetaxel—40, 33.3, 16.7 and 0 mg/kg/day (i.v., qd ×1)

[3] = test system: Calu-6 lung subcutaneous flank xenografts; assay: Calu-6 flank xenograft model; assay type: in vivo, male nude mice; conditions: q.d x1; for Tumor Volume Day 38: mean ± SEM; for % ILS: median, time to 1 cc vs vehicle; for % T/C Day 38: treated vs vehicle
Protocol: as §1, §2
Tumor cells were inoculated s.c. into male nude mice on day 0. On day 10, mice bearing established tumors were size matched at ˜233 mm^3 and placed into the following groups:
as §4
N-[2-[(4-hydroxyphenyl)amino]-3-pyridyl]-4-methoxybenzenesulfonamide—50 and 0 mg/kg/day (p.o., q.d. ×21 or p.o., b.i.d. ×21)
Cisplaitn—20, 10, 8 and 0 mg/kg/day (ip, qd ×1)
Combination Therapy—100/10, 75/10, 100/8 mg/kg/day (p.o., q.d., 5 days on, 5 days off ×2/ip, qd ×1), 50/10 mg/kg/day (p.o., q.d., ×21/ ip, qd ×1)

Structure (SMILES): O=c1[nH]cc(F)c(=O)[nH]1 [5-FU, 5-fluorouracil, reference compound]
- Tumor Volume Day 38 ([1]; 20 mg/kg/day i.p.): 1413 ± 80 mm^3
- % ILS ([1]; 20 mg/kg/day i.p.): 25*** %
- % T/C Day 38 ([1]; 20 mg/kg/day i.p.): 59*** %
- Tumor Volume Day 38 ([1]; 30 mg/kg/day i.p.): 525 ± 35 mm^3
- % ILS ([1]; 30 mg/kg/day i.p.): 75*** %
- % T/C Day 38 ([1]; 30 mg/kg/day i.p.): 22*** %
- Tumor Volume Day 38 ([1]; 40 mg/kg/day i.p.): 973 ± 45 mm^3
- % ILS ([1]; 40 mg/kg/day i.p.): 50*** %
- % T/C Day 38 ([1]; 40 mg/kg/day i.p.): 41*** %

Structure (SMILES): CC(=O)O[C@@]12CO[C@@H]1C[C@H](O)[C@@]1(C)C(=O)[C@H](O)C3=C(C)[C@@H](OC(=O)[C@H](O)[C@@H](NC(=O)OC(C)(C)C)c4ccccc4)C[C@@](O)([C@@H](OC(=O)c4ccccc4)[C@H]21)C3(C)C [Docetaxel, docetaxel, reference compound]
- Tumor Volume Day 38 ([2]; 16.7 mg/kg/day i.v.): 1909 ± 101 mm^3
- % ILS ([2]; 16.7 mg/kg/day i.v.): 26*** %
- % T/C Day 38 ([2]; 16.7 mg/kg/day i.v.): 68*** %
- Tumor Volume Day 38 ([2]; 33.3 mg/kg/day i.v.): 551 ± 31 mm^3
- % ILS ([2]; 33.3 mg/kg/day i.v.): 67*** %
- % T/C Day 38 ([2]; 33.3 mg/kg/day i.v.): 19*** %
- Tumor Volume Day 38 ([2]; 40 mg/kg/day i.v.): 1008 ± 58 mm^3
- % ILS ([2]; 40 mg/kg/day i.v.): 52*** %
- % T/C Day 38 ([2]; 40 mg/kg/day i.v.): 36*** %

Structure (SMILES): N.N.[Cl][Pt][Cl] [Cisplatin, cisplatin, reference compound]
- Tumor Volume Day 38 ([3]; 8 mg/kg/day i.p.): 1649 ± 67 mm^3
- % ILS ([3]; 8 mg/kg/day i.p.): 29*** %
- % T/C Day 38 ([3]; 8 mg/kg/day i.p.): 63*** %
- Tumor Volume Day 38 ([3]; 10 mg/kg/day i.p.): 914 ± 49 mm^3
- % ILS ([3]; 10 mg/kg/day i.p.): 71*** %
- % T/C Day 38 ([3]; 10 mg/kg/day i.p.): 35*** %
- Tumor Volume Day 38 ([3]; 20 mg/kg/day i.p.): 1472 ± 75 mm^3
- % ILS ([3]; 20 mg/kg/day i.p.): 58*** %
- % T/C Day 38 ([3]; 20 mg/kg/day i.p.): 56*** %
